Results: patent publication US6096732A, “Steroid esters, process for their production and their pharmaceutical use” (Schering AG, priority 1996, dated 2000)

What was measured:
[1] = type: physicochemical
Description: Solubility Studies of the Esters that are Mentioned in Examples 1 to 6
In the following table, the solubility of compounds 1 to 6 is depicted in comparison to unesterified reference compound 1 (Z)-6'-(4-cyanophenyl)-9,11α-dihydro-17β-hydroxy-17α-(3-hydroxy-1-propenyl)-4'H-naphtho[3',2',1':10,9,11]estra-4-en-3-one (Example 1 in DE-A 4216003). For solubility, the temperature is indicated in °C., in which 50 mg of substance is dissolved in 1 ml of a 1:4 benzyl benzoate/castor oil mixture.

[2] = type: physicochemical; remark: listed apart in the source
Description: Studies on Hydrolytic Stability of the Esters According to the Invention
The hydrolytic stability of the esters under strongly basic conditions can be used to assess whether the compounds have adequate stability under physiological conditions.
In each case, 10 mg of compounds 1, 3 and 4 was dissolved at 23° C. in 10 ml of dioxane and mixed with 1 ml of a 1N aqueous sodium hydroxide solution. In each case, 11 samples were drawn, acidified to pH 6 and the ester:alcohol ratio was determined per HPLC. In the graphic visualization,the portion of ester is depicted in percent as a function of the saponification period in hours.

[3] = tested on: NMU-induced breast tumor of rats; test: Influence of the tumor growth in N-Methyl-N-nitrosourea (NMU) model in rats; type: in vivo, rat (Sprague-Dawley); conditions: p.o., 6 times per week, various dosages; vs. reference compound 3
Description: Influence of the Tumor Growth in N-Methyl-N-nitrosourea (NMU)--Model in Rats
The growth of the NUM-induced breast tumor of rats is largely dependent on estrogens and gestagens and less on prolactin. Estrogen and progesterone antagonists result in inhibiting tumor growth.
Female rats (Sprague-Dawley), 55 (±3) days old; at least 9 animals per group.
The animals receive 50 mg/kg of NMU on a one-time basis. Then, the animals are checked once a week by palpation for tumor development. About 6 to 8 weeks after NMU treatment, one or more tumors develop per animal. At a minimum size of 150 mm^2 /tumor/animal, treatment (6 times per week) begins with the test substance, the determination of body weight and tumor size (with the aid of a sliding gauge; once per week).
The results for compound 1 are graphically depicted in the following figures for various dosages in each case in comparison to the untreated control, an ovariectomy group as well as reference compound 3, (Z)-6'-(4-cyanophenyl)-9,11α-dihydro-17β-hydroxy-17α-[3-(1-oxo-2-methylpropoxy)-1-propenyl]-4'H-naphtho[3',2',1':10,9,11]estr-4-en-3-one. […] This is surprising because of the only slight structural differences. [drawing 5] Tumor-Inhibiting Action on the Hormone-Sensitive Human Breast Cancer Cell Line ZR-75.

[4] = tested on: human, tamoxifen-resistant ZR-75 breast cancer; test: Tumor-inhibiting action on human, tamoxifen-resistant ZR-75 breast cancer in nude mice; type: in vivo; conditions: s.c., 8 weeks, vs. untreated control; graph only
Description: Breast cancer cell line ZR-75 is an estrogen- and progesterone receptor-positive human line, which can be transplanted serially in the thymic aplastic nude mouse. […] An underline that is used here developed a tamoxifen resistance after a prolonged treatment period.
Female nude/nude mice, 4 weeks old.
Formulation and Administration of Test Substances:
The test substances are dissolved in benzyl benzoate and castor oil (1+4), and the one-time dose is administered at a volume of 0.1 ml s.c. Treatment begins about 7 weeks after implantation (treatment of established tumors). The treatment time is at most 10 weeks.
The tumor fragments of several donor animals are implanted in the animals s.c. on both sides in the flanks. On the day of implantation and on day 60, all animals are implanted with a tamoxifen-releasing pellet (5 mg).
The mice are randomized 7 weeks after implantation of the tumors, and the treatment is begun and carried out for 8 weeks.
Tumor growth is determined by determination of the tumor surface area using a sliding gauge. The tumor surface area is calculated from the product of the longest diameter of the tumor and the diameter that is perpendicular to said longest diameter. At the end of the test, the animals are killed, the tumors are prepared outside and weighed.

[5] = tested on: breast cancer cell line ZR-75; conditions: standard treatment; cited from earlier work

| SMILES | Solubility (temperature at which 50 mg of substance is dissolved in 1 ml) [1] | stability compared to reference compound 3 [2] | stability under strongly basic conditions [2] | other results |
| --- | --- | --- | --- | --- |
| CC(C)CC(=O)OC/C=C\[C@]1(O)CC[C@H]2[C@@H]3CCC4=CC(=O)CC[C@@]45Cc4cc(-c6ccc(C#N)cc6)ccc4[C@@H](C[C@@]21C)[C@@H]35 [Compound 1, (Z)-6'-(4-Cyanophenyl)-9,11α-dihydro-17β-hydroxy-17α-[3-(1-oxo-3-methylbutoxy)-1-propenyl]-4'H-naphtho[3',2',1':10,9,11]estr-4-en-3-one] | 50 °C | significantly improved compared to reference compound 3 | very good stability | tumor-inhibiting action [3]: tumor-inhibiting action that is superior to that of reference compound 3; inhibition of the course of growth of the tumors [4]: inhibition of the course of growth of the tumors |
| CC(C)C(=O)OCC/C=C\[C@]1(O)CC[C@H]2[C@@H]3CCC4=CC(=O)CC[C@@]45Cc4cc(-c6ccc(C#N)cc6)ccc4[C@@H](C[C@@]21C)[C@@H]35 [Compound 2, (Z)-6'-(4-Cyanophenyl)-9,11α-dihydro-17β-hydroxy-17α-[4-(1-oxo-2-methylpropoxy)-1-butenyl]-4'H-naphtho[3',2',1':10,9,11]estr-4-en-3-one] | 23 °C |  |  |  |
| CC(C)CC(=O)OCC/C=C\[C@]1(O)CC[C@H]2[C@@H]3CCC4=CC(=O)CC[C@@]45Cc4cc(-c6ccc(C#N)cc6)ccc4[C@@H](C[C@@]21C)[C@@H]35 [Compound 3, (Z)-6'-(4-cyanophenyl)-9,11α-dihydro-17β-hydroxy-17α-[4-(1-oxo-3-methylbutoxy)-1-butenyl]-4'H-naphtho[3',2',1':10,9,11]estr-4-en-3-one] | 23 °C | significantly improved compared to reference compound 3 | very good stability |  |
| CC(C)CC(=O)OCC/C=C\[C@]1(O)CC[C@H]2[C@@H]3CCC4=CC(=O)CC[C@@]45Cc4cc(-c6ccc(F)cc6)ccc4[C@@H](C[C@@]21C)[C@@H]35 [Compound 4, (Z)-9,11α-dihydro-6'-(4-fluorophenyl)-17β-hydroxy-17α-[4-(1-oxo-3-methylbutoxy)-1-butenyl]-4'H-naphtho[3',2',1':10,9,11]estr-4-en-3-one] | 50 °C | significantly improved compared to reference compound 3 | very good stability |  |
| CC(C)CC(=O)OC/C=C\[C@]1(O)C=C[C@H]2[C@@H]3CCC4=CC(=O)CC[C@@]45Cc4cc(-c6ccc(C#N)cc6)ccc4[C@@H](C[C@@]21C)[C@@H]35 [Compound 5, (Z)-6'-(4-Cyanophenyl)-9,11α-dihydro-17β-hydroxy-17α-[3-(1-oxo-3-methylbutoxy)-1-propenyl]-4'H-naphtho[3',2',1':10,9,11]estra-4,15-dien-3-one] | 23 °C |  |  |  |
| CC(C)C(=O)OC/C=C\[C@]1(O)C=C[C@H]2[C@@H]3CCC4=CC(=O)CC[C@@]45Cc4cc(-c6ccc(C#N)cc6)ccc4[C@@H](C[C@@]21C)[C@@H]35 [Compound 6, (Z)-6'-(4-Cyanophenyl)-9,11α-dihydro-17β-hydroxy-17α-[3-(1-oxo-2-methylpropoxy)-1-propenyl]-4'H-naphtho[3',2',1':10,9,11]estra-4,15-dien-3-one] | < 50 °C |  |  |  |
| C[C@]12C[C@@H]3c4ccc(-c5ccc(C#N)cc5)cc4C[C@]45CCC(=O)C=C4CC[C@H]([C@H]35)[C@@H]1CC[C@@]2(O)/C=C\CO [Reference Compound 1, (Z)-6'-(4-cyanophenyl)-9,11α-dihydro-17β-hydroxy-17α-(3-hydroxy-1-propenyl)-4'H-naphtho[3',2',1':10,9,11]estra-4-en-3-one, reference compound] | > 100 °C |  |  |  |
| CC(C)C(=O)OC/C=C\[C@]1(O)CC[C@H]2[C@@H]3CCC4=CC(=O)CC[C@@]45Cc4cc(-c6ccc(C#N)cc6)ccc4[C@@H](C[C@@]21C)[C@@H]35 [Reference Compound 3, (Z)-6'-(4-cyanophenyl)-9,11α-dihydro-17β-hydroxy-17α-[3-(1-oxo-2-methylpropoxy)-1-propenyl]-4'H-naphtho[3',2',1':10,9,11]estr-4-en-3-one, reference compound] | 100 °C |  |  |  |
| CC/C(=C(\c1ccccc1)c1ccc(OCCN(C)C)cc1)c1ccccc1 [tamoxifen] |  |  |  | response of ZR-75 to tamoxifen [5]: inhibiting growth |
